Laboratory results taken from patent publication US11512203B2, “Water-soluble azo compound or salt thereof, ink and recording medium” (Nippon Kayaku Kabushiki Kaisha, priority 2016, dated 2022).
Blank lines part the entries; values can stand above or below the compound they belong to.

Experiments:
Assay type in all cases: physicochemical
[1] = Xenon light resistance test, inks of Examples 10 to 12 (Table 53); conditions: Glossy paper 1 Canon GL-101, 2 Epson Crispia, 3 Brother BP71G
Description: Inks of Examples 10 to 12 were prepared as in Example 1 except that the compounds represented by the above formulae (110) to (112) were used, respectively, instead of the compound represented by the above formula (101).
(§1) Ink-jet recording was performed with an ink-jet printer (Canon, Inc., Product name: PIXUS ip7230) to allow each of the inks from Examples 10 to 12 and Comparative Examples 1, 2 above to be attached on the following glossy papers 1 to 3. Upon performing recording, image patterns were created so that the density can be obtained in a gradation of 6 levels: 100%, 85%, 70%, 55%, 40%, and 25% to obtain a half-tone recorded article. The resulting recorded article was used as a test piece to perform the following tests.
(§2) Glossy paper 1: Canon, Inc., Product name: Canon Photograph paper, gold grade (GL-101)
(§3) Glossy paper 2: Seiko Epson Corporation, Product name: Photograph paper Crispia
(§4) Glossy paper 3: Brother Industries, Ltd., Product name: BP71G
(§5) When required, color measurements of a recorded image were performed using a colorimeter (Product name SpectroEye from X-rite, Inc.). Color measurements were performed under the conditions of a density standard of ANSI A, a wide viewing angle of 2 degrees, a light source of D50. […]

[2] = Xenon light resistance test, ink of Example 13 (Table 54); conditions: Glossy paper 1 Canon GL-101, 2 Epson Photograph paper <glossy>, 3 FUJIFILM Gasai Photo-finishing Pro
Description: An ink of Example 13 was prepared as in Example 1 except that the compound represented by the above formula (113) was used instead of the compound represented by the above formula (101).
as §1, with “Example 13” for “Examples 10 to 12”
as §2
Glossy paper 2: Seiko Epson Corporation, Product name: Photograph paper
Glossy paper 3: FUJIFILM Corporation, Product name: Gasai Photo-finishing Pro
as §5

[3] = Xenon light resistance test, ink of Example 16 (Table 56)
Description: An ink of Example 16 was prepared as in Example 1 except that the compound represented by the above formula (116) was used instead of the compound represented by the above formula (101).
as §1, with “Example 16” for “Examples 10 to 12”, “4.” for “3.”
(§6) Glossy paper 1: Canon, Inc., Product name: Canon Photograph paper, platinum grade (PT-201)
Glossy paper 2: Canon, Inc., Product name: Canon Photograph paper, gold grade (GL-101)
Glossy paper 3: Seiko Epson Corporation, Product name: Photograph paper Crispia
Glossy paper 4: Brother Industries, Ltd., Product name: BP71G
as §5

[4] = Xenon light resistance test, inks of Examples 1, 2 (Table 48); conditions: xenon 100 klux, 168 hours, 24° C., 60% RH, 55% density gradation, grade of coloring matter persistence rate; for Results from light resistance tests, Glossy paper 3: ink on Brother BP71G; for Results from light resistance tests, Glossy paper 1: ink on Canon Photograph paper, platinum grade (PT-201); for Results from light resistance tests, Glossy paper 4: ink on FUJIFILM Gasai Photo-finishing Pro; for Results from light resistance tests, Glossy paper 2: ink on Seiko Epson Photograph paper Crispia
Description: Components shown in Table 47 below were mixed to obtain solutions, which were then subjected to precision filtration through 0.45 μm membrane filters to prepare inks of Examples 1, 2 and Comparative Examples 1, 2. The numerical values in the table are in terms of “parts,” and the symbol “-” means that that component is not included. In Table 47 below, the component […] is indicated as “remainder”.
as §1, with “1, 2” for “10 to 12”, “2” for “2 above”, “4.” for “3.”
as §6, §3, §4
(§7) Glossy paper 4: FUJIFILM Corporation, Product name: Gasai Photo-finishing Pro
When required, color measurements were performed for a recorded image using a colorimeter (Product name SpectroEye from X-rite, Inc.). Color measurements were performed under the conditions of a density standard of ANSI A, a wide viewing angle of 2 degrees, a light source of D50.
A test piece with a holder was placed in a xenon weatherometer XL75 (Suga Test Instruments Co., Ltd.), and irradiated for 168 hours at a temperature of 24° C., a humidity of 60% RH, and an illuminance of 100 klux. A gradation portion with a density of 55% of each test piece was subjected to color measurements of reflection densities before and after the test. A coloring matter persistence rate was computed from the reflection densities obtained, and evaluation was performed using the following 3-grade criteria.
A coloring matter persistence rate of 85% or more: A A coloring matter persistence rate of 81% or more and less than 85%: B
A coloring matter persistence rate of less than 81%: C
(Formula for Computing Coloring Matter Persistence Rate) Coloring matter persistence rate (%)=(reflection density after test/reflection density before test)×100

[5] = Xenon light resistance test, ink of Example 17 (Table 57)
Description: An ink of Example 17 was prepared as in Example 1 except that the compound represented by the above formula (117) was used instead of the compound represented by the above formula (101).
as §1, with “Example 17” for “Examples 10 to 12”, “1, 2.” for “1 to 3.”
as §6
Glossy paper 2: FUJIFILM Corporation, Product name: Gasai Photo-finishing Pro
When required, color measurements of a recorded image were performed using a colorimeter (Product name SpectroEye from X-rite, Inc.). Color measurements were performed under the conditions of a density standard of ANSI A, a wide viewing angle of 2 degrees, a light source of D50.
A test piece with a holder was placed in a xenon weatherometer XL75 (Suga Test Instruments Co., Ltd.), and irradiated for 168 hours at a temperature of 24° C., a humidity of 60% RH, and an illuminance of 100 klux. […]

[6] = Xenon light resistance test, ink of Example 4 (Table 50); conditions: for each glossy paper (Table 50)
Description: An ink of Example 4 was prepared as in Example 1 except that the compound represented by the above formula (104) was used instead of the compound represented by the above formula (101).
as §1, with “4” for “10 to 12”, “4.” for “3.”
as §6, §3, §4, §7
When required, color measurements of a recorded image were performed using a colorimeter (Product name SpectroEye from X-rite, Inc.). Color measurements were performed under the conditions of a density standard of DIN NB, a wide viewing angle of 2 degrees, a light source of D65. […]

light resistance results as compared with Comparative Example 2 [1]: better results for each glossy paper
SMILES: CCNc1nc(Nc2cc(Cl)c(N=Nc3ccc(Cl)c(S(=O)(=O)O)c3)cc2OCCCS(=O)(=O)O)nc(Nc2cc(Cl)c(N=Nc3ccc(Cl)c(S(=O)(=O)O)c3)cc2OCCCS(=O)(=O)O)n1 [Example 10]

light resistance results as compared with Comparative Example 2 [2]: better results for each glossy paper
SMILES: O=S(=O)(O)CCCOc1cc(N=Nc2ccc(Cl)c(S(=O)(=O)O)c2)c(Cl)cc1Nc1nc(Nc2cc(Cl)c(N=Nc3ccc(Cl)c(S(=O)(=O)O)c3)cc2OCCCS(=O)(=O)O)nc(NC(CO)CO)n1 [Example 13]

The remaining lines, values behind:

SMILES: O=S(=O)(O)CCCOc1cc(N=Nc2ccc(Cl)c(S(=O)(=O)O)c2)c(Cl)cc1Nc1nc(NCC2CCCO2)nc(Nc2cc(Cl)c(N=Nc3ccc(Cl)c(S(=O)(=O)O)c3)cc2OCCCS(=O)(=O)O)n1 (stereo not drawn) [Example 16]
light resistance as compared with Comparative Examples 1, 2 (conclusion) [3]: superior light resistance
light resistance results as compared with Comparative Examples 1, 2 [3]: good results for each glossy paper

SMILES: O=S(=O)(O)CCCOc1cc(N=Nc2ccc(Cl)c(S(=O)(=O)O)c2)c(Cl)cc1Nc1nc(NCCO)nc(Nc2cc(Cl)c(N=Nc3ccc(Cl)c(S(=O)(=O)O)c3)cc2OCCCS(=O)(=O)O)n1 [Comparative Example 1]
Results from light resistance tests, Glossy paper 3 [4]: B (A coloring matter persistence rate of 81% or more and less than 85%)
Results from light resistance tests, Glossy paper 1 [4]: B (A coloring matter persistence rate of 81% or more and less than 85%)
Results from light resistance tests, Glossy paper 4 [4]: C (A coloring matter persistence rate of less than 81%)
Results from light resistance tests, Glossy paper 2 [4]: B (A coloring matter persistence rate of 81% or more and less than 85%)

SMILES: O=S(=O)(O)CCCOc1cc(N=Nc2ccc(Cl)c(S(=O)(=O)O)c2)c(Cl)cc1Nc1nc(Nc2cc(Cl)c(N=Nc3ccc(Cl)c(S(=O)(=O)O)c3)cc2OCCCS(=O)(=O)O)nc(N2CCCC2)n1 [Example 17]
light resistance as compared with Comparative Examples 1, 2 (conclusion) [5]: superior light resistance
light resistance results as compared with Comparative Examples 1, 2 [5]: good results for each glossy paper

SMILES: COc1cc(N=Nc2cccc(S(=O)(=O)O)c2)ccc1NC(=O)Nc1ccc(N=Nc2cccc(S(=O)(=O)O)c2)cc1OC [Comparative Example 2, C.I. Direct Yellow 132]
Results from light resistance tests, Glossy paper 3 [4]: B (A coloring matter persistence rate of 81% or more and less than 85%)
Results from light resistance tests, Glossy paper 1 [4]: B (A coloring matter persistence rate of 81% or more and less than 85%)
Results from light resistance tests, Glossy paper 4 [4]: B (A coloring matter persistence rate of 81% or more and less than 85%)
Results from light resistance tests, Glossy paper 2 [4]: C (A coloring matter persistence rate of less than 81%)

SMILES: COCCCNc1nc(Nc2cc(Cl)c(N=Nc3ccc(Cl)c(S(=O)(=O)O)c3)cc2OCCCS(=O)(=O)O)nc(Nc2cc(Cl)c(N=Nc3ccc(Cl)c(S(=O)(=O)O)c3)cc2OCCCS(=O)(=O)O)n1 [Example 4]
light resistance tests, results compared with Comparative Examples 1, 2 [6]: better results
